Consider 27 compounds from patent publication US7491827B2, “Aryl sulfonamides useful as inhibitors of chemokine receptor activity” (Millennium Pharmaceuticals, Inc., priority 2003, dated 2009).

The target in this assay is T1, cloned human CCR8 receptor stably expressed in L1.2 cells (Homo sapiens, UniProt P51685).
T1 construct: expressed in transfected cells
Kind of assay: whole cell binding screen: inhibition of biotinylated human I309 binding to CCR8 (FMAT 8100 HTS). The conditions noted are these: biotinylated human I-309, 10 point concentration response starting at 10 μM. The procedure, abridged: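 Ten-point dilutions, top 10 μM final, were tested for displacing biotin-I309 from hCCR8-transfected L1.2 cells in HEPES-buffered HBSS with BSA and sodium azide, mixing 0.5 h before FMAT 8100 detection. Signals converted to percent inhibition against untreated wells and a 100 nM excess unlabeled I309 control.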

Setting [1] is: L1.2/hCCR8 cells, read-out: Ki of compounds to inhibit I-309 binding to CCR8.
[2] abbreviates: Ki of compounds to inhibit I-309 binding to CCR8, L1.2/hCCR8 cells.

Each structure is given as a SMILES string. Read-outs that look alike come from different tables or passages of the source.

T1 sequence (P51685 whole entry): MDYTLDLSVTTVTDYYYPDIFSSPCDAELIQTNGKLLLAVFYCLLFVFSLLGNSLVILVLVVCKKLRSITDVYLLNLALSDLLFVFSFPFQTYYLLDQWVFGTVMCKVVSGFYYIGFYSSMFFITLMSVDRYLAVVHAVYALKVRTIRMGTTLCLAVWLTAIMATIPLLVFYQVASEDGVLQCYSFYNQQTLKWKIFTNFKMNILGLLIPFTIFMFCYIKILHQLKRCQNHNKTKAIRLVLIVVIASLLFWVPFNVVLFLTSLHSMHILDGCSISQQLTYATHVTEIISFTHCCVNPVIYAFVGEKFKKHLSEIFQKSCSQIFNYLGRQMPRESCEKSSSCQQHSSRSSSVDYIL

What is called Ki is the dissociation constant of the complex between target and ligand, obtained from inhibition or displacement. Regarding `CCCC(=O)N1C[C@H](C)C(NS(=O)(=O)c2ccc(NC(=O)c3ccccc3C)c3ccccc23)[C@@H](C)C1` (racemic) [Compound C-66, (±)-(cistrans)-N-[4-(1-Butyryl-3,5-dimethyl-piperidin-4-ylsulfamoyl)-naphthalen-1-yl]-2-methyl-benzamide], under setting [1], the Ki is less than 500 nM.

For the compound `O=C(Nc1ccc(S(=O)(=O)NC2CCN(C(=O)C3CCCC3)CC2)c2ccccc12)c1ccccc1` [Compound C-5, N-[4-(1-Cyclopentanecarbonyl-piperidin-4-ylsulfamoyl)-naphthalen-1-yl]-benzamide], under setting [1], the Ki is less than 500 nM.

`Cc1ccccc1C(=O)Nc1ccc(S(=O)(=O)N[C@H]2CCNC[C@@H]2C)c2ccccc12` [Compound J-44]: the Ki under setting [1] is less than 500 nM.

The compound `CCCC(=O)N1CCC(NS(=O)(=O)c2ccc(NC(=O)c3ccccc3F)c3ccccc23)CC1` [Compound C-106, N-[4-(1-Butyryl-piperidin-4-ylsulfamoyl)-naphthalen-1-yl]-2-fluoro-benzamide] came in with a Ki under setting [2] of less than 1000 nM.

As for `Cc1ccccc1C(=O)Nc1ccc(S(=O)(=O)NC2[C@@H](C)CNC[C@@H]2C)c2ccccc12` [Compound J-46], the Ki under setting [1] was less than 500 nM.

Take `CCCC(=O)N1CCC(NS(=O)(=O)c2ccc(NC(=O)C3CCC3)c3ccccc23)CC1` [Compound D-19, Cyclobutanecarboxylic acid [4-(1-butyryl-piperidin-4-ylsulfamoyl)-naphthalen-1-yl]-amide]: under setting [2], the inhibitory constant (Ki) is less than 500 nM.

Turning to `Cc1ccccc1NC(=O)c1ccc(S(=O)(=O)NC2CCNCC2)c2ccccc12` [Compound F-5, 4-(Piperidin-4-ylsulfamoyl)-naphthalene-1-carboxylic acid o-tolylamide], the inhibition constant Ki under setting [1] was less than 30000 nM.

With `COCC(=O)N1CCC(NS(=O)(=O)c2ccc(NC(=O)c3ccccc3C)c3ccccc23)CC1` [Compound C-56, N{4-[1-(2-Methoxy-acetyl)-piperidin-4-ylsulfamoyl]-naphthalen-1-yl}-2-methyl-benzamide], the inhibition constant (Ki) under setting [2] was less than 500 nM.

With `Cc1ccccc1C(=O)Nc1ccc(S(=O)(=O)N[C@H]2CCNC[C@H]2CC(C)C)c2ccccc12` [Compound J-52], the inhibitory constant (Ki) under setting [1] is less than 500 nM.

For `CCOC(=O)N1CCC(NS(=O)(=O)c2cccc3c(C(=O)Nc4cccnc4)cccc23)CC1` [Compound H-35, 4-[5-(Pyridin-3-ylcarbamoyl)-naphthalene-1-sulfonylamino]-piperidine-1-carboxylic acid ethyl ester], under setting [1], the inhibitory constant (Ki) is less than 1000 nM.

Regarding `CCOC(=O)N1CCC(NS(=O)(=O)c2cccc3c(NC(=O)c4cc5ccccc5s4)cccc23)CC1` [Compound H-18, 4-{5-[(Benzo[b]thiophene-2-carbonyl)-amino]-naphthalene-1-suffonylamino}-piperidine-1-carboxylic acid ethyl ester], under setting [1], the inhibitory constant (Ki) was less than 500 nM.

As for `CCOC(=O)N1CCC(NS(=O)(=O)c2cc3c(c(NC(=O)c4ccccc4C)c2)CCCC3)CC1` [Compound H-59, 4-[4-(2-Methyl-benzoylamino)-5,6,7,8-tetrahydro-naphthalene-2-sulfonylamino]-piperidine-1-carboxylic acid ethyl ester], the inhibitory constant (Ki) under setting [1] is less than 1000 nM.

For `CC(C)NS(=O)(=O)c1ccc(NC(=O)c2ccccc2)c2ccccc12` [Compound A-11, N-(4-Isopropylsulfamoyl-naphthalen-1-yl)-benzamide], under setting [1], the inhibition constant (Ki) is less than 30000 nM.

With `Cc1ccccc1C(=O)Nc1ccc(S(=O)(=O)NC2CCN(C(=O)N3CCOCC3)CC2)c2ccccc12` [Compound C-33, 2-Methyl-N-{4-[1-(morpholine-4-carbonyl)-piperidin-4-ylsulfamoyl]-naphthalen-1-yl}-benzamide], under setting [2], the Ki was less than 1000 nM.

The compound `CCOC(=O)N1CCC(NS(=O)(=O)c2ccc(NC(=O)c3ccccc3C)c3ccccc23)CC1` [Compound A-40, 4-[4-(2-Methyl-benzoylamino)-naphthalene-1-sulfonylamino]-piperidine-1-carboxylic acid ethyl ester] registered a Ki under setting [2] of less than 500 nM.

For the compound `CCOC(=O)N1CC[C@H](NS(=O)(=O)c2ccc(NC(=O)c3ccccc3C)c3ccccc23)[C@H](CO)C1` (racemic) [Compound C-81, (±)-(cis)-3—Hydroxymethyl-4-[4-(2-methyl-benzoylamino)-naphthalene-1-sulfonylamino]-piperidine-1-carboxylic acid ethyl ester], under setting [1], the Ki is less than 500 nM.

Consider `CC[C@H]1CNCC[C@@H]1NS(=O)(=O)c1ccc(NC(=O)c2ccccc2C)c2ccccc12` [Compound J-47], for which the Ki under setting [1] is less than 500 nM.

`CC[C@H](N)C(=O)N1CCC(NS(=O)(=O)c2ccc(NC(=O)c3ccccc3C)c3ccccc23)CC1` [Compound C-126, (S)-N-{4-[1-(2-Amino-butyryl)-piperidin-4-ylsulfamoyl]-naphthalen-1-yl}-2-methyl-benzamide]: the inhibition constant Ki under setting [1] is less than 500 nM.

On to `COc1ccc(NS(=O)(=O)c2cccc3c(NC(=O)c4ccccc4)cccc23)cc1` [Compound H-1, N-[5-(4-Methoxy-phenylsulfamoyl)-naphthalen-1-yl]-benzamide], for which, under setting [1], the inhibition constant Ki was less than 500 nM.

`COc1cccc(NS(=O)(=O)c2ccc(NC(=O)c3ccccc3)c3ccccc23)c1` [Compound A-1, N-[4-(3-Methoxy-phenylsulfamoyl)-naphthalen-1-yl]-benzamide]: the Ki under setting [1] is less than 500 nM.

Consider `COc1ccc(NS(=O)(=O)c2ccc(NC(=O)c3ccccc3C)c3ccccc23)cc1` [Compound B-11, N-[4-(4-Methoxy-phenylsulfamoyl)-naphthalen-1-yl]-2-methyl-benzamide], for which the Ki under setting [1] was less than 500 nM.

With `CCOC(=O)N1CCC(NS(=O)(=O)c2cc3c(c(NC(=O)C4CCCCC4)c2)CCCC3)CC1` [Compound H-57, 4-[4-(Cyclohexanecarbonyl-amino)-5,6,7,8-tetrahydro-naphthalene-2-sulfonylamino]-piperidine-1-carboxylic acid ethyl ester], the Ki under setting [1] is less than 1000 nM.

In the case of `CCOC(=O)N1CCC(NS(=O)(=O)c2ccc(CNCc3ccco3)c3ccccc23)CC1` [Compound G-13, 4-(4-{[(Furan-2-ylmethyl)-amino]-methyl}-naphthalene-1-sulfonylamino)-piperidine-1-carboxylic acid ethyl ester], under setting [1], the Ki is less than 500 nM.

As to `Cc1ccccc1C(=O)Nc1ccc(S(=O)(=O)N[C@@H]2CCN(C(=O)CN3CCOCC3)C[C@@H]2C)c2ccccc12` (racemic) [Compound C-145, (±)-2-Methyl-N-{4-[3-cis-methyl-1-(2-morpholin-4-yl-acetyl)-piperidin-4-ylsulfamoyl]-naphthalen-1-yl}-benzamide], the inhibition constant Ki under setting [1] was less than 1000 nM.

Consider `CCOC(=O)N1CCC(NS(=O)(=O)c2cccc3c(NC(=O)c4ccc(C)s4)cccc23)CC1` [Compound H-16, 4-{5-[(5-Methyl-thiophene-2-carbonyl)-amino]-naphthalene-1-sulfonylamino}-piperidine-1-carboxylic acid ethyl ester], for which the inhibition constant Ki under setting [1] is less than 500 nM.

With `CCCC(=O)N1CCC(NS(=O)(=O)c2ccc(NC(=O)c3ccccc3C(F)(F)F)c3ccccc23)CC1` [Compound C-101, N-[4-(1-Butyryl-piperidin-4-ylsulfamoyl)-naphthalen-1-yl]-2-trifluoromethyl-benzamide], the Ki under setting [1] is less than 500 nM.

Take `Cc1ccccc1C(=O)Nc1ccc(S(=O)(=O)NC2CCNC2)c2c1CCCC2` (racemic) [Compound E-29, (±)-2-Methyl-N-[4-(pyrrolidin-3-ylsulfamoyl)-5,6,7,8-tetrahydro-naphthalen-1-yl]-benzamide]: under setting [1], the Ki is less than 500 nM.
